According to patent US6663881B2 (priority 1993, dated 2003):
Like-named read-outs stand apart in the source and are kept apart here.

Experiments:
[1] = test system: balloon traumatized rabbit carotid artery; format: in vivo
[2] = test system: balloon traumatized pig femoral arteries; assay: Biological stenting of balloon traumatized pig femoral arteries (luminal area morphometry); format: in vivo
Method: Pig femoral arteries were traumatized as described in Example 7, and then treated with cytochalasin B. About 1.5 to about 2 ml of cytochalasin B at 0.1 μg/ml was infused into portions of the artery that had been separated from other portions by ligatures. The artery was then pressurized for 3 minutes and the fluid aspirated. Approximately 8 to about 30 lambda of the solution is retained in the interstitial space surrounding the cells in the tunica media. Ten femoral arteries (two arteries obtained from each of the 5 pigs that were treated according to the single dose protocol described in Example 7) were then evaluated histologically at 4 days or 3 weeks after cytochalasin B adminstration. The maximal luminal area of each artery was measured and calculated from digitized microscopic images by a BQ System IV computerized morphometric analysis system (R & M Biometrics, Inc., Nashville, Tenn.). This experiment was repeated with 5 additional pigs (two arteries per pig; cytochalasin B dose=0.1 μg/ml, applied for 3 minutes at 1 atm pressure; same time points). The data obtained from the two experiments were combined.
The luminal area of the traumatized and cytochalasin B-treated segments of the arteries were also compared to the luminal area of the normal, untreated region of the femoral artery proximal to the test area. […]

[3] = test system: balloon traumatized swine coronary arteries; assay: Dose-response study of balloon traumatized swine coronary arteries (Table 14, morphometry); format: in vivo
[4] = test system: Vascular smooth muscle cells (BO54); assay: Scratch-migration assay; format: cell-based, baboon; design: key to Migration Grade in an Undisturbed Region of the Well / Migration Grade in the Cleared Area of the Well: −=no migration; +1=minimal; +2=mild; +3=moderate; +4=marked (maximum density; limit of cell contact inhibition) migration
Method: Scratch assays to determine the extent of smooth muscle cell migration inhibition by cytochalasin B were performed in accordance with the following protocol:
Vascular smooth muscle cells (BO54) were derived from explants of baboon aortic smooth muscle, as described in Example 10. The cells were grown in flat bottom, six well tissue culture plates, which hold about 5 ml of medium. The vascular smooth muscle cells were plated at 200,000 cells/well and placed at 37° C. in a humidified 5% CO2 incubator for 18 hours. The wells were then scratched with a sterile portion of a single edge razor blade that was held by clamp or pliers and was brought aseptically into contact with the bottom of the well at a 90° angle. The cells from a small area along the scratch were removed by a sterile cotton tipped applicator while the blade was in contact with the bottom of the well. After incubation, the presence of cells in the “scratched” area is indicative of cell migration across the scratch line.
Briefly, a stock solution of cytochalasin B (Sigma Chemical Co.) in dimethyl sulfoxide (DMSO) at 1 mg/ml was prepared. Test dilutions of cytochalasin B or control medium were added. Each experiment included two sets of plates:
A set: Test agent exposure for 1, 3, 6, 8 and 10 days only; and
B set: Test agent exposure for 1, 3, 6, 8 and 10 days, followed by a seven day recovery time with control medium.
Both sets of plates were fixed (10% formalin in PBS) and stained (0.02% crystal violet) at the end of the timed exposures. Test concentrations for cytochalasin B were 1, 0.1 and 0.01 μg/ml, and a negative medium control was included. Fresh medium and drug were supplied 3 times per week.
In this Table, “M” indicates Migration Grade, wherein −=no migration; +1=minimal; +2=mild; +3=moderate; and +4=marked (maximum density; limit of cell contact inhibition) migration of vascular smooth muscle cells into the cleared area adjacent to the scratch. In this Table, “T” denotes a morphological Toxicity Grade, wherein −=no toxicity; +1=minimal; +2=mild; +3=moderate; and +4=marked toxicity. The migration results are expressed as “Grade in the Cleared Area of the Well/Grade in an Undisturbed Region of the Well.” The toxicity values represent a grade for all cells in each well.

[5] = 7-day Recovery Post Exposure, Day 1, 0.01 μg/mL
[6] = 7-day Recovery Post Exposure, Day 1, 0.1 μg/mL
[7] = 7-day Recovery Post Exposure, Day 1, 1.0 μg/mL
[8] = 7-day Recovery Post Exposure, Day 3, 0.01 μg/mL
[9] = 7-day Recovery Post Exposure, Day 3, 0.1 μg/mL
[10] = 7-day Recovery Post Exposure, Day 6, 0.1 μg/mL
[11] = 7-day Recovery Post Exposure, Day 6, 1.0 μg/mL
[12] = 7-day Recovery Post Exposure, Day 8, 0.01 μg/mL
[13] = 7-day Recovery Post Exposure, Day 8, 0.1 μg/mL
[14] = 7-day Recovery Post Exposure, Day 8, 1.0 μg/mL
[15] = 7-day Recovery Post Exposure, Day 10, 0.01 μg/mL
[16] = 7-day Recovery Post Exposure, Day 10, 0.1 μg/mL
[17] = 7-day Recovery Post Exposure, Day 10, 1.0 μg/mL
[18] = Continuous Exposure, Day 1, 0.01 μg/mL
[19] = Continuous Exposure, Day 1, 0.1 μg/mL
[20] = Continuous Exposure, Day 6, 0.01 μg/mL
[21] = Continuous Exposure, Day 6, 0.1 μg/mL
[22] = Continuous Exposure, Day 8, 0.01 μg/mL
[23] = Continuous Exposure, Day 8, 0.1 μg/mL
[24] = Continuous Exposure, Day 10, 0.01 μg/mL
[25] = Continuous Exposure, Day 10, 0.1 μg/mL

C=C1[C@@H](C)[C@H]2[C@H](Cc3ccccc3)NC(=O)[C@]23OC(=O)/C=C/[C@H](O)CCC[C@@H](C)C/C=C/[C@H]3[C@@H]1O [cytochalasin B]
intimal proliferation ([1]; Group 1, 2 weeks): minimal intimal and adventital proliferation | intimal proliferation ([1]; Group 1, three weeks): no intimal proliferation | intimal proliferation ([1]; Group 1: 20 mg in 1 g bovine collagen gel in collagen mesh wrap, 1 week): no intimal or adventital proliferation | intimal proliferation ([1]; Group 2, 3 weeks): moderate, irregular intimal proliferation | intimal proliferation ([1]; Group 2, two weeks): complete inhibition of intimal proliferation | intimal proliferation ([1]; Group 3, three weeks): moderate amount of intimal hyperplasia | intimal proliferation ([1]; Group 3, two weeks): mild, irregular intimal proliferation | intimal proliferation ([1]; Group 3: 8 mg in 100 mg pluronic gel on collagen mesh wrap, one week): mild intimal proliferation | intimal proliferation ([1]; Group 4, three weeks): minimal to no intimal proliferation | intimal proliferation ([1]; Group 4, two weeks): minimal intimal proliferation | intimal proliferation ([1]; Group 7a, three weeks): mild irregular intimal proliferation | intimal proliferation ([1]; Group 7a: 10% wt/wt, one week): no intimal proliferation | re-endothelization ([1]; Group 8a, animal 1254): approximately 60% | intimal proliferation ([1]; Group 8a, animal 1255): mild to moderate intimal proliferation | intimal proliferation ([1]; Group 8a, animal 1256): moderate intimal proliferation | intimal proliferation ([1]; Group 8a: 10% wrap 2 weeks, removed, 2 weeks later, animal 1254): none to mild | intimal proliferation ([1]; Group 10 (1% wrap, 2 weeks after removal), animal 1304): moderate initmal proliferation | re-endothelization ([1]; Group 10, animal 1304): 100% | intimal proliferation ([1]; Group 11 (1% wrap, four weeks after removal), animal 1307): moderate initmal proliferation | intimal proliferation ([1]; Group 11, animal 1308): moderate intimal proliferation | re-endothelization ([1]; Group 11, animal 1308): 100% | intimal proliferation ([1]; Group 11, animal 1309): marked intimal proliferation | qualitative difference between test and control animals ([1]; Groups 10 and 11: 1% wt/wt silicone wrap 2 weeks, removed, evaluated 2 or 4 weeks later): No significant difference | lumen area of test region vs normal control segment of the same artery ([2]; 0.1 μg/ml for cytochalasin B): approximately two times as large | luminal area vs other test agents or controls ([2]; 0.1 μg/ml, 4 day and 3 week post-treatment): larger luminal area | artery lumen areas over three weeks vs diluent control ([2]; 0.1 μg/ml, two way analysis of variance): statistically significant difference (p<0.05) | toxicity to the vascular smooth muscle cells ([2]; 10 μg/ml dose, dose response study): appeared to be toxic | myofilament reformation (electron micrographs) ([2]; about 0.1 to about 10.0 μg/ml): myofilament reformation was retarded | constriction or vascular remodeling ([2]; pig, in vivo): did not undergo the constriction or chronic geometrical (vascular) remodeling | incidence of mural microthrombi ([2]; vs untreated balloon traumatized arteries): decreased | coronary luminal area ([3]; 0.1, 1.5 or 10.0 μg/ml, three weeks after intervention): sustained arterial dilation | myocardial or arterial lesions (histology) ([3]; in vivo): did not result in myocardial or arterial lesions | morphological toxicity grade ([4]; 0.1 μg/ml, continuous exposure): −3 to +1 | Migration Grade in an Undisturbed Region of the Well [4, 5]: +4 | Migration Grade in the Cleared Area of the Well [4, 5]: +3 | Migration Grade in an Undisturbed Region of the Well [4, 6]: +4 | Migration Grade in the Cleared Area of the Well [4, 6]: +3 | Migration Grade in an Undisturbed Region of the Well [4, 7]: +3 | Migration Grade in the Cleared Area of the Well [4, 7]: +2 | Migration Grade in an Undisturbed Region of the Well [4, 8]: +4 | Migration Grade in the Cleared Area of the Well [4, 8]: +3 | Migration Grade in an Undisturbed Region of the Well [4, 9]: +4 | Migration Grade in the Cleared Area of the Well [4, 9]: +3 | Migration Grade in an Undisturbed Region of the Well ([4]; 7-day Recovery Post Exposure, Day 6, 0.01 μg/mL): +4/+4 | Migration Grade in an Undisturbed Region of the Well [4, 10]: +4 | Migration Grade in the Cleared Area of the Well [4, 10]: +3 | Migration Grade in an Undisturbed Region of the Well [4, 11]: +3 | Migration Grade in the Cleared Area of the Well [4, 11]: +2 | Migration Grade in an Undisturbed Region of the Well [4, 12]: +4/+4 | Migration Grade in the Cleared Area of the Well [4, 12]: +4/+4 | Migration Grade in an Undisturbed Region of the Well [4, 13]: +4 | Migration Grade in the Cleared Area of the Well [4, 13]: +3 | Migration Grade in an Undisturbed Region of the Well [4, 14]: +3 | Migration Grade in the Cleared Area of the Well [4, 14]: +2 | Migration Grade in an Undisturbed Region of the Well [4, 15]: +4/+4 | Migration Grade in the Cleared Area of the Well [4, 15]: +4/+4 | Migration Grade in an Undisturbed Region of the Well [4, 16]: +4/+4 | Migration Grade in the Cleared Area of the Well [4, 16]: +4/+4 | Migration Grade in an Undisturbed Region of the Well [4, 17]: +3 | Migration Grade in the Cleared Area of the Well [4, 17]: +2 | Migration Grade in an Undisturbed Region of the Well [4, 18]: +3 | Migration Grade in the Cleared Area of the Well [4, 18]: +1 | Migration Grade in an Undisturbed Region of the Well [4, 19]: +3 | Migration Grade in the Cleared Area of the Well [4, 19]: +1 | Migration Grade in an Undisturbed Region of the Well ([4]; Continuous Exposure, Day 1, 1.0 μg/mL): +2 | Migration Grade in an Undisturbed Region of the Well ([4]; Continuous Exposure, Day 3, 0.1 μg/mL): +4 | Migration Grade in an Undisturbed Region of the Well [4, 20]: +4 | Migration Grade in the Cleared Area of the Well [4, 20]: +3 | Migration Grade in an Undisturbed Region of the Well [4, 21]: +4 | Migration Grade in the Cleared Area of the Well [4, 21]: +2 | Migration Grade in an Undisturbed Region of the Well ([4]; Continuous Exposure, Day 6, 1.0 μg/mL): +2 | Migration Grade in an Undisturbed Region of the Well [4, 22]: +4 | Migration Grade in the Cleared Area of the Well [4, 22]: +3 | Migration Grade in an Undisturbed Region of the Well [4, 23]: +4 | Migration Grade in the Cleared Area of the Well [4, 23]: +2 | Migration Grade in an Undisturbed Region of the Well ([4]; Continuous Exposure, Day 8, 1.0 μg/mL): +2 | Migration Grade in an Undisturbed Region of the Well [4, 24]: +4 | Migration Grade in the Cleared Area of the Well [4, 24]: +3 | Migration Grade in an Undisturbed Region of the Well [4, 25]: +4 | Migration Grade in the Cleared Area of the Well [4, 25]: +2 | Migration Grade in an Undisturbed Region of the Well ([4]; Continuous Exposure, Day 10, 1.0 μg/mL): +2
